Reference: patent publication US7605227B2, “Melanoma antigen peptide analogues” (MannKind Corporation, priority 2005, dated 2009)
“Also recorded” adds a separate entry of the source. Square brackets hold non-standard residues; d marks the D form. Ends that are not written are not given here. Nle = CCCC[C@H](N)C(=O)O; Nva = CCC[C@H](N)C(=O)O

What was measured:
[1] = system: target cells coated with natural peptide; assay: Plasmid prime, SSX-2 peptide boost, in vivo cytotoxicity (CFSE); parameters: species or system HHD mice; details: spleen and blood; targets coated with 20 μg/ml and 1 μg/ml natural peptide
Method: Eight groups of mice (n=4) were immunized with plasmid expressing SSX-241-49 natural epitope, by direct inoculation into the inguinal lymph nodes with 25 μg in 25 μl of PBS/each lymph node at day 0, 3, 14 and 17. This was followed by two additional peptide boosts (similar amount) at day 28 and 31, using a negative control peptide (Melan A 26-35 “EAA”), natural peptide or analogs as shown in FIG. 9.
To evaluate the in vivo response against natural peptide, splenocytes were isolated from littermate control HHD mice and incubated with 20 μg/mL or 1 μg/ml of natural peptide for 2 hours. These cells were then stained with CFSE^hi fluorescence (4.0 μM or 1 μM for 15 minutes) and intravenously co-injected into immunized mice with an equal number of control splenocytes stained with CFSE^lo fluorescence (0.4 μM). Eighteen hours later the specific elimination of target cells was measured by removing spleen and PBMC from challenged animals and measuring CFSE fluorescence by flow cytometry. The relative depletion of the populations corresponding to peptide loaded splenocytes was calculated relative to the control (unloaded) population and expressed as % specific lysis. FIGS. 10 (spleen) and 11 (blood) show the in vivo cytotoxicity elicited by the regimens described in FIG. 7.

[2] = system: T cell lines against a natural (non-mutated) epitope (SSX-241-49); assay: Cross-reactivity and functional avidity: IFN-gamma from T cell lines against natural SSX-2 41-49 epitope; format: cell-based, HHD transgenic mice; details: IFN-gamma from T cell line raised against native SSX-2 41-49; native = 1, lower = more active;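 also: peptide analogs tested ex vivo with competent APCs, IFN-gamma in supernatant measured by ELISA, readouts include minimal triggering concentration, peak effect and concentration at peak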
[3] = system: 51Cr-labeled target cells (T2 cells); assay: Plasmid prime, SSX-2 peptide boost, ex vivo 51Cr cytotoxicity against T2 target cells; format: in vivo, mice; details: peptide as boost agent after plasmid; 51Cr T2 targets
Method: Three groups of mice (n=4) were immunized with a plasmid expressing SSX-241-49 natural epitope by direct inoculation into the inguinal lymph nodes with 25 μg in 25 μl of PBS/each lymph node at day 0, 3, 14 and 17. This was followed by two additional peptide boosts (similar amount) at day 28 and 31. One week after the boost, splenocytes were stimulated ex vivo with SSX-241-49 natural peptide and tested against ^51Cr-labeled target cells (T2 cells) at various E:T ratios (FIG. 8). […] This correlated with the binding and stability parameters determined by ex vivo experimentation.

[4] = system: 624.38 melanoma cells; assay: Plasmid prime, SSX-2 peptide boost, ex vivo cytotoxicity against human tumor cells; format: in vivo, mice; details: ex vivo after boost
Method: Eight groups of mice (n=4) were immunized with plasmid expressing SSX-241-49 natural epitope by direct inoculation into the inguinal lymph nodes with 25 μg in 25 μl of PBS/each lymph node at day 0, 3, 14 and 17. This was followed by two additional peptide boosts (similar amount) at day 28 and 31, using a negative control peptide (Melan A 26-35 “EAA”), natural peptide or analogs as shown in FIG. 9.

[5] = target: T1, HLA-A*0201 (Homo sapiens, UniProt P04439, D140Y/D185E/D98H/E176V/E277Q/G131W/G231S/I119V/I121R/I166T/I218V/L300P/L318F/N151K/N90K/P208A/P217A/Q86G/Q94H/R138H/R169H/T345S); assay: Peptide binding using T2 cells (SSX-2 41-49 analogs); details: half maximal binding of wild-type peptide relative to analog; native = 1.0
Text: Thus, at limiting concentrations of peptide, it is a measurement of Kon mostly and at saturation levels of peptide it is a measurement of both Kon and Koff.

[6] = target: T1, HLA-A*0201; assay: iTopia affinity assay (ED50); format: binding; details: PRAME425-433 analogs
Text: Avidin-coated microtiter plates containing class I monomer loaded with a so-called placeholder peptide were used to evaluate peptide binding, affinity and off-rate. The monomer-coated plates were supplied as part of the iTopia Epitope Discovery System Kit (Beckman Coulter, Inc., San Diego, Calif., USA). Assay buffers, anti-MHC-FITC mAb and beta2-microglobulin and control peptides were also supplied with the kits.
Plates were read on the fluorometer. Sigmoidal dose response curves were generated using Prism software.

[7] = system: target cells coated with wild-type peptide; assay: Plasmid prime, NY-ESO-1 peptide boost, in vivo cytotoxicity (CFSE); parameters: species or system HHD mice; details: plasmid entrain, peptide amplify; targets coated with wild-type NY-ESO-1 peptide
Method: These cells were then stained with CFSE^hi and CFSE^med fluorescence (4.0 μM or 1 μM, respectively, for 15 minutes) and intravenously co-injected into immunized mice with an equal number of control splenocytes stained with CFSE^lo fluorescence (0.4 μM). Eighteen hours later the specific elimination of target cells was measured by removing the spleens and PBMC from challenged animals and measuring CFSE fluorescence by flow cytometry. The relative depletion of the populations corresponding to peptide loaded splenocytes was calculated relative to the control (unloaded) population and expressed as % specific lysis.

[8] = system: splenocytes stimulated with wild-type peptide NY-ESO-1157-165; assay: NY-ESO-1 boost, ex vivo IFN-gamma production by splenocytes (ELISA); format: in vivo, mice; details: 10 μM wild-type peptide, 3 and 6 days
Text: Supernatants were harvested and the concentration of IFN-γ measured by ELISA.

[9] = system: T cell line specific for the native epitope (PRAME425-433); assay: Cross-reactivity of PRAME425-433 analogs: IFN-gamma from native-epitope-specific T cell line; format: cell-based
Method: The analogs listed in FIGS. 26-28 were tested for various properties such as improved affinity and stability of binding, cross-reactivity with the native epitope, and immunogenicity as follows in Examples 40-48. […] The observed affinities of the analogs are reported as % binding (compared to the positive control) and ED50, and stability of binding as half time of dissociation. Cross reactivity with the native epitope was assessed by using the analog peptides to stimulate IFN-gamma secretion from a T cell line specific for the native epitope, essentially as described in Example 6. The data shown in FIGS. 26-28 were generated by stimulating with analog peptide at approximately 0.3 μM. […] In some cases, the reported values are the average of two determinations.

[10] = system: PRAME425-433-specific T cells; assay: pCTLR2 prime, PRAME peptide boost, tetramer/CD8 co-staining; format: in vivo, HHD transgenic mice; details: versus boost with negative control peptide
[11] = system: native epitope coated cells; assay: pCTLR2 prime, PRAME peptide boost, in vivo cytotoxicity (CFSE); parameters: species or system HHD transgenic mice
[12] = system: splenocytes stimulated with native peptide; assay: pCTLR2 prime, PRAME peptide boost, ex vivo IFN-gamma ELISA; format: in vivo, HHD transgenic mice; details: 2.5 μg peptide boost, 10 μg/ml native peptide, 48 hours
[13] = system: PRAME+ A2+ 624.38 melanoma cells; assay: PRAME immunization, ex vivo cytotoxicity against human tumor cells; format: in vivo, HHD transgenic mice
Method: This was followed by two peptide boosts (2.5 μg) at day 28 and 31, with the analog L426Nva L433Nle.

[14] = system: 624.38 cells; assay: pSEM prime, Tyrosinase peptide boost, ex vivo cytotoxicity against human tumor cells; format: in vivo, HHD transgenic mice
Method: HHD transgenic mice (n=4/group) were immunized (according to the general protocol in FIG. 40) with plasmid (pSEM) expressing the Tyrosinase369-377 epitope by direct inoculation into the inguinal lymph nodes of 25 μg of plasmid in 25 μl of PBS per lymph node at day 0, 3, 14 and 17. […] One week after the boost, splenocytes were stimulated ex vivo with the native Tyrosinase369-377 peptide and assayed against ^51Cr-labeled human tumor cells (624.38 cells) at various E:T ratios. […] Together with the preceding example, this observation illustrates the usefulness of complementing more stringent assays (in vivo cytotoxicity and tetramer staining) with more sensitive assays (ex vivo cytotoxicity after in vitro stimulation) to outline potentially useful analogs.

CC[C@H](C)[C@H](NC(=O)[C@H](CCCCN)NC(=O)[C@H](CCC(=O)O)NC(=O)[C@H](CO)NC(=O)[C@@H](NC(=O)[C@@H](N)CCCCN)C(C)C)C(=O)N[C@@H](Cc1ccccc1)C(=O)N[C@@H](Cc1ccc(O)cc1)C(=O)N[C@H](C(=O)O)C(C)C [SSX2 41-49 (A42V)]
in vivo cytotoxicity (% specific lysis), in words [1]: increased activity relative to the natural peptide | Cross-reactivity and fct avidity (native to analogs)* [2]: 0.03 | response against target cells expressing the natural peptide [3]: higher response against target cells expressing the natural peptide | cytotoxicity against human tumor cells, in words [4]: increased cytotoxicity against human tumor cells

CC[C@H](C)[C@H](NC(=O)[C@H](Cc1ccc(O)cc1)NC(=O)[C@H](Cc1ccccc1)NC(=O)[C@@H](NC(=O)[C@H](CCCCN)NC(=O)[C@H](CCC(=O)O)NC(=O)[C@H](CO)NC(=O)[C@@H](NC(=O)[C@@H](N)Cc1ccccc1)C(C)C)[C@@H](C)CC)C(=O)O [SSX2 41-49 (K41F, A42V, V49I)]
Cross-reactivity and fct avidity (native to analogs)* [2]: 0.3 | cytotoxicity against human tumor cells, in words [4]: increased cytotoxicity against human tumor cells | Relative affinity (1/RA) [5]: 1.6

Ala substitution: PRAME425-433 analog with Ala at the PΩ anchor position (SLLQHLIGA; UniProt P78395 425-433, looked up, variant L433A)
ED50 change relative to native peptide ([6]; printed as reduced / less (lower affinity)): more than 10 fold

FASEKIFYV [SSX2 41-49 (K41F)]
in vivo cytotoxicity (% specific lysis), in words [1]: increased activity relative to the natural peptide | Cross-reactivity and fct avidity (native to analogs)* [2]: 0.3 | Relative affinity (1/RA) [5]: 1.5

L158V C165V: NY-ESO-1 157-165 analog, L158V and C165V (SVLMWITQV; UniProt P78358 157-165, looked up, variant L158V C165V)
in vivo cytotoxicity (% specific lysis), in words [7]: effect in the same range with wild-type peptide or the C165V mutant | IFN-gamma production upon ex vivo re-stimulation, in words [8]: increased amounts of IFN-gamma

Lys P1 analog: PRAME425-433 analog with Lys for Ser at P1 (KLLQHLIGL)
IFN-γ elicited, % of the native peptide ([9]; analog peptide at approximately 0.3 μM): 40%

S157F L158V C165V: NY-ESO-1 157-165 analog, triple mutant (FVLMWITQV; UniProt P78358 157-165, looked up, variant S157F L158V C165V)
IFN-gamma production upon ex vivo re-stimulation, in words [8]: increased amounts of IFN-gamma

S157K L158V C165V: NY-ESO-1 157-165 analog, triple mutant (KVLMWITQV; UniProt P78358 157-165, looked up, variant S157K L158V C165V)
in vivo cytotoxicity (% specific lysis), in words [7]: effect in the same range with wild-type peptide or the C165V mutant

SNvaLMWITQV (S[Nva]LMWITQV) [Nyeso-1 157-165 (L158Nva, C165V))]
in vivo cytotoxicity (% specific lysis), in words [7]: substantial, constant cytotoxicity | IFN-gamma production upon ex vivo re-stimulation, in words [8]: large levels of IFN-gamma more rapidly

S{Nva}LQHLIG{Nle} (S[Nva]LQHLIG[Nle]) [Prame 425-433 (L426Nva, L433Nle)]
affinity (ED50) / binding characteristics relative to native, in words [6]: similar, somewhat improved binding characteristics | expansion of native epitope-specific T cells (tetramer), in words [10]: significantly higher than in mice primed with plasmid and boosted with the negative control peptide | in vivo cytotoxicity against native epitope, in words [11]: cytotoxic immunity against native epitope coated cells; also recorded: capable of expanding the immunity against the native epitope | IFN-γ production (cross-reactivity) relative to native, in words ([9]; PRAME425-433 analogs at approximately 0.3 μM): significant level of cross-reactivity | IFN-γ production by splenocytes (ELISA), in words ([12]; listed as L426Nva L433Nle): greater response | IFN-γ production by splenocytes (ELISA), in words ([12]; listed as PRAME425-433 L426Nva L433Nle): significant enhancement of IFN-γ production | ex vivo cytotoxicity against A2+ PRAME+ 624.38 cells, in words ([13]; mouse, in vivo): cytotoxic immunity against a human tumor cell line; also recorded: significant cytotoxicity against human tumor cells expressing A2 (624.38) | ex vivo cytotoxicity against A2- 624.28 control cells, in words ([13]; negative control cells): no significant activity

T{Nva}LQHLIG{Nle} (T[Nva]LQHLIG[Nle]) [S425T L426Nva L433Nle]
expansion of native epitope-specific T cells (tetramer), in words [10]: significantly higher than in mice primed with plasmid and boosted with the negative control peptide | in vivo cytotoxicity against native epitope, in words [11]: capable of expanding the immunity against the native epitope | IFN-γ production by splenocytes (ELISA), in words [12]: ex vivo cytokine production

YASEKIFYV [SSX2 41-49 (K41Y)]
in vivo cytotoxicity (% specific lysis), in words [1]: increased activity relative to the natural peptide | Cross-reactivity and fct avidity (native to analogs)* [2]: 3 | Relative affinity (1/RA) [5]: 1.7

YMDGTMSQV [Tyrosinase 369-377, reference compound]
ex vivo cytotoxicity against 624.38 cells, in words [14]: robust cytotoxicity against 624.38 cells

YVDGTMSQNva (YVDGTMSQ[Nva]) [M370V V377Nva]
ex vivo cytotoxicity against 624.38 cells, in words [14]: robust cytotoxicity against 624.38 cells
